From US7105517B2 (priority 2001, dated 2006)
Values joined by “and” are separate entries in the source; they are usually repeats but may differ in a detail not shown here. Identical values can stand only once.

| Compound | melting point |
| --- | --- |
| CN1CCN(c2nc(-c3ccccc3)c(-c3ccnc(Nc4ccccc4)n3)s2)CC1 | 239 to 240 °C |
| Nc1nc(-c2ccccc2)c(-c2ccnc(Nc3cccc(CO)c3)n2)s1 | 214 to 215 °C |
| Nc1nc(-c2ccccc2)c(-c2ccnc(Nc3ccccc3)n2)s1 | 244 to 245 °C and 247 to 250 °C |

Second part, the compound after the results:

| melting point | Compound |
| --- | --- |
| 243 to 245 °C | Nc1nc(-c2ccccc2)c(-c2ccnc(Nc3cccc(F)c3)n2)s1 |
| 243 to 245 °C | Nc1nc(-c2ccccc2)c(-c2ccnc(Nc3cccc(Cl)c3)n2)s1 |
| 236 to 237 °C | COc1ccc(-c2cccc(Nc3nccc(-c4sc(N)nc4-c4ccccc4)n3)c2)cc1OC |
